A word on the GI50: it is the concentration at which growth is held to half of that of the control. Lower therefore signals greater sensitivity of the cells.

The text below walks through data of ChEMBL document CHEMBL3044886, “Chemoselective synthesis, antiproliferative activities, and SAR study of 1H-pyrazol-5-yl-N,N-dimethylformamidines and pyrazolyl-2-azadienes” (2012).

Holding throughout (assay type): functional
A short description of assay [1]: Growth inhibition of Homo sapiens (human) NPC-TW01 cells after 72 hr by MTT assay. The following applies: NPC-TW01, 72 h. For orientation: Formazan colour is commonly taken as a measure of viable cells.
Assay [2] relates to NCI-H226. Kind of assay: Growth inhibition of Homo sapiens (human) NCI-H226 cells after 72 hr by MTT assay. To be noted: NCI-H226, 72 h.
Assay [3] deals with Jurkat. Nature of the assay: Growth inhibition of Homo sapiens (human) Jurkat cells after 72 hr by MTT assay.

`CN(C)/C=N/c1c(C=O)c(-c2ccccc2)nn1-c1ccccc1`: the concentration for 50% growth inhibition (GI50) in assay [1] was 9.3 µM; in assay [2], 31.4 µM.

`CN(C)/C=N/c1c(C=O)c(-c2ccc(Cl)cc2)nn1-c1ccc(Br)cc1`: the 50% growth inhibitory concentration (GI50) in assay [3] is 38.9 µM; in assay [1], greater than 100 µM; in assay [2], 62.9 µM.

Consider `CN(C)/C=N/c1cc(-c2ccccc2)nn1-c1ccccc1`, for which the GI50 in assay [3], in assay [1] and in assay [2] was greater than 100 µM each time.

`Cc1ccc(-c2cc(/N=C/N(C)C)n(-c3cccc(Cl)c3)n2)cc1`: the figures for the GI50 in assay [3], in assay [1] and in assay [2] were greater than 100 µM, greater than 100 µM and 80.9 µM, respectively.

On to `CN(C)/C=N/c1cc(-c2ccc(Cl)cc2)nn1-c1cccc(Cl)c1`, for which the GI50 came out at 74.5 µM in assay [3], 92.7 µM in assay [1] and 75.6 µM in assay [2].

With `Cc1ccc(-c2cc(/N=C/N(C)C)n(-c3ccc(Br)cc3)n2)cc1`, the GI50 was greater than 100 µM in assay [3], greater than 100 µM in assay [1] and 73.9 µM in assay [2].

As to `CN(C)/C=N/c1cc(-c2ccc(Cl)cc2)nn1-c1ccc(Br)cc1`, the GI50 in assay [3] amounted to 84.9 µM; in assay [1] it was 60.7 µM; in assay [2], 59.8 µM.

Take `Nc1c(C=O)c(-c2ccccc2)nn1-c1ccccc1`: the GI50 in assay [3] was 87.3 µM; in assay [1], greater than 100 µM; in assay [2], greater than 100 µM.

`Cc1ccc(-c2nn(-c3cccc(Cl)c3)c(N)c2C=O)cc1`: the values for the 50% growth inhibitory concentration (GI50) in assay [3], in assay [1] and in assay [2] were 86.3 µM, greater than 100 µM and 71.8 µM, respectively.

As for `Nc1c(C=O)c(-c2ccc(Cl)cc2)nn1-c1cccc(Cl)c1`, the GI50 in assay [3] is 78.9 µM; in assay [1], greater than 100 µM; in assay [2] it was 79.7 µM.

Regarding `Cc1ccc(-c2nn(-c3ccc(Br)cc3)c(N)c2C=O)cc1`, the 50% growth inhibitory concentration (GI50) in assay [3] came to 34.4 µM; in assay [1], 28.2 µM; in assay [2] it was 8.5 µM.

Turning to `Nc1c(C=O)c(-c2ccc(Cl)cc2)nn1-c1ccc(Br)cc1`, the GI50 in assay [3] stood at 90.7 µM; in assay [1] it was 59.7 µM; in assay [2] it was 49.1 µM.

Regarding `Nc1cc(-c2ccccc2)nn1-c1ccccc1`, the results for the GI50 in assay [3], in assay [1] and in assay [2] were 83 µM, greater than 100 µM and 72.2 µM, respectively.

As to `Cc1ccc(-c2cc(N)n(-c3cccc(Cl)c3)n2)cc1`, the GI50 in assay [3] was 56.6 µM; in assay [1], greater than 100 µM; in assay [2] it was 63.5 µM.

Turning to `Nc1cc(-c2ccc(Cl)cc2)nn1-c1cccc(Cl)c1`, the GI50 in assay [3] is greater than 100 µM; in assay [1] it was greater than 100 µM; in assay [2], 75.1 µM.

With `Cc1ccc(-c2cc(N)n(-c3ccc(Br)cc3)n2)cc1`, the GI50 in assay [3] was 45 µM; in assay [1], 80.2 µM; in assay [2], 54.3 µM.

On to `Nc1cc(-c2ccc(Cl)cc2)nn1-c1ccc(Br)cc1`, for which the figures for the 50% growth inhibitory concentration (GI50) in assay [3], in assay [1] and in assay [2] were 61.3 µM, 64.4 µM and 58.7 µM, respectively.

With `Cc1ccc(-c2nn(-c3cccc(Cl)c3)c(/N=C/N(C)C)c2C=O)cc1`, the figures for the GI50 in assay [3], in assay [1] and in assay [2] were 7.8 µM, 7.2 µM and 8.9 µM, respectively.

Regarding `CN(C)/C=N/c1c(C=O)c(-c2ccc(Cl)cc2)nn1-c1cccc(Cl)c1`, the GI50 in assay [3] came to 7.7 µM; in assay [1], 7.4 µM; in assay [2], 9.2 µM.

For the molecule `Cc1ccc(-c2nn(-c3ccc(Br)cc3)c(/N=C/N(C)C)c2C=O)cc1`, the GI50 came out at 6.7 µM in assay [3], 6 µM in assay [1] and 8.2 µM in assay [2].
